18 molecules from ChEMBL document CHEMBL1127953, “Substituent effects of benzopyran-4-(N-cyano)-carboxamidine potassium channel openers for selectivity to guinea pig trachealis” (Bioorg Med Chem Lett, 1994) can be followed below.

Holding throughout (type): functional
The species named for assay [1] is Cavia porcellus. Kind of assay: Maximum relaxation achieved compared to maximum relaxation to aminophylline (mM) in guinea pig trachaelis.
The species entered for assay [2] is Rattus norvegicus. In words: Maximum reduction of 30 mM KCl- induced contraction in rat aorta.
For assay [3], the species on record is Rattus norvegicus. Kind of assay: […] activity in rat aorta precontracted with 30 mM KCl.
Assay [4] is filed under the species Cavia porcellus. Kind of assay: Inhibition of spontaneous tone in guinea pig trachaelis.

On to `CNC(=O)C1=CC(C)(C)Oc2ccc([N+](=O)[O-])cc21`, for which the Intrinsic activity in the assay filed under Cavia porcellus [1] came out at 89.6%; in the assay listed under Rattus norvegicus [2], 61%. For the same molecule, the figures for the EC50 in the assay listed under Rattus norvegicus [3] and in the assay filed under Cavia porcellus [4] were 10.7 nM and 33.1 nM, respectively.
Turning to `CN(C)C(=S)C1=CC(C)(C)Oc2ccc([N+](=O)[O-])cc21`, the Intrinsic activity turned out to be 77.4% in the assay listed under Cavia porcellus [1] and 71.5% in the assay filed under Rattus norvegicus [2]. Also, the concentration for a half-maximal effect (EC50) in the assay filed under Rattus norvegicus [3] was 955 nM; in the assay listed under Cavia porcellus [4], 490 nM.
`CN(C)/C(=N\C#N)C1=CC(C)(C)Oc2ccc([N+](=O)[O-])cc21` had an Intrinsic activity in the assay listed under Cavia porcellus [1] of 90.6%. Moreover, the EC50 in the assay filed under Rattus norvegicus [3] is > 31600 nM; in the assay filed under Cavia porcellus [4] it was 51.3 nM.
With `CN(C)/C(=N\S(N)(=O)=O)C1=CC(C)(C)Oc2ccc([N+](=O)[O-])cc21`, the 50% effective concentration (EC50) in the assay filed under Rattus norvegicus [3] and in the assay filed under Cavia porcellus [4] was > 31600 nM in each case.
For the molecule `CN(C)/C(=N\C#N)C1=CC(C)(C)Oc2ccc(Cl)cc21`, the half-maximal effective concentration (EC50) in the assay listed under Rattus norvegicus [3] and in the assay filed under Cavia porcellus [4] was > 31600 nM each time.
In the case of `CN(C)/C(=N/C#N)C1=CC(C)(C)Oc2ccc(OC(F)(F)F)cc21`, the Intrinsic activity in the assay listed under Cavia porcellus [1] is on record as 56.1%. In addition, the half-maximal effective concentration (EC50) in the assay listed under Rattus norvegicus [3] was > 10000 nM; in the assay filed under Cavia porcellus [4], 407 nM.
Consider `CN(C)/C(=N\C#N)C1=CC(C)(C)Oc2ccc(C#N)cc21`, for which the results for the Intrinsic activity in the assay listed under Cavia porcellus [1] and in the assay filed under Rattus norvegicus [2] were 85.6% and 73.7%, respectively. In addition, the EC50 was 5010 nM in the assay filed under Rattus norvegicus [3] and 2140 nM in the assay listed under Cavia porcellus [4].
For the molecule `CN(C)/C(=C\[N+](=O)[O-])C1=CC(C)(C)Oc2ccc([N+](=O)[O-])cc21`, the Intrinsic activity in the assay listed under Cavia porcellus [1] was found to be 84.8%; in the assay filed under Rattus norvegicus [2], 83.1%. In addition, the results for the EC50 in the assay filed under Rattus norvegicus [3] and in the assay filed under Cavia porcellus [4] were 6460 nM and 1120 nM, respectively.
Turning to `COc1ccc2c(c1)C(/C(=N/C#N)N(C)C)=CC(C)(C)O2`, the EC50 in the assay filed under Rattus norvegicus [3] and in the assay listed under Cavia porcellus [4] was > 31600 nM throughout.
In the case of `CN(C)/C(=N\C#N)C1=CC(C)(C)Oc2ccccc21`, the EC50 in the assay listed under Rattus norvegicus [3] and in the assay filed under Cavia porcellus [4] was > 31600 nM in each case.
Take `CN(C)/C(=N\C#N)C1=CC(C)(C)Oc2ccc(Br)cc21`: the EC50 in the assay listed under Rattus norvegicus [3] and in the assay listed under Cavia porcellus [4] was > 31600 nM in each case.
For the molecule `CN(C)/C(=N\C#N)C1=CC(C)(C)Oc2ccc(C(F)(F)F)cc21`, the Intrinsic activity in the assay filed under Cavia porcellus [1] is 74.1%; in the assay listed under Rattus norvegicus [2], 75.2%. Also, the figures for the EC50 in the assay listed under Rattus norvegicus [3] and in the assay filed under Cavia porcellus [4] were 12600 nM and 178 nM, respectively.
For the molecule `CN(C)/C(=N\C#N)C1=CC(C)(C)Oc2ccc(S(=O)(=O)c3ccccc3)cc21`, the Intrinsic activity in the assay listed under Cavia porcellus [1] is recorded as 91.1%; in the assay filed under Rattus norvegicus [2], 73.8%. In addition, the EC50 in the assay listed under Rattus norvegicus [3] was 3310 nM; in the assay filed under Cavia porcellus [4], 3630 nM.
For `CN(C)/C(=N\C(N)=O)C1=CC(C)(C)Oc2ccc([N+](=O)[O-])cc21`, the concentration giving a half-maximal response (EC50) in the assay filed under Rattus norvegicus [3] and in the assay filed under Cavia porcellus [4] was > 31600 nM in each case.
Consider `CN(C)/C(=N\C#N)C1=CC(C)(C)Oc2ccc(S(C)(=O)=O)cc21`, for which the 50% effective concentration (EC50) in the assay filed under Rattus norvegicus [3] and in the assay listed under Cavia porcellus [4] was > 31600 nM throughout.
As for `CN(C)C(=O)C1=CC(C)(C)Oc2ccc([N+](=O)[O-])cc21`, the results for the Intrinsic activity in the assay filed under Cavia porcellus [1] and in the assay filed under Rattus norvegicus [2] were 78.3% and 79.9%, respectively. Besides, the concentration giving a half-maximal response (EC50) is 129 nM in the assay filed under Rattus norvegicus [3] and 398 nM in the assay filed under Cavia porcellus [4].
As for `CC1(C)Oc2ccc(C#N)cc2[C@@H](N2CCCC2=O)[C@H]1O` [CROMAKALIM], the Intrinsic activity was 85.1% in the assay listed under Cavia porcellus [1] and 74.7% in the assay listed under Rattus norvegicus [2]. This molecule had an EC50 in the assay filed under Cavia porcellus [4] of 851 nM.
The matching figures for `CC(N/C(=N\C#N)Nc1ccncc1)C(C)(C)C` (centres undefined) [PINACIDIL ANHYDROUS]: 97.3%, 91.9% and 1580 nM.

Usually EC50 stands for the concentration at which the effect is half-maximal.
